The values that follow come from patent publication US20170152263A1, “Substituted Indazole Compounds as IRAK4 Inhibitors” (AURIGENE DISCOVERY TECHNOLOGIES LIMITED, priority 2014, published 2017).

Structures can show the parent of a compound that is named as a salt.

In the test the target is T1, recombinant IRAK-4 kinase (Homo sapiens, UniProt Q9NWZ3).
T1 construct: purchased Millipore, USA
T1 sequence (Q9NWZ3 1-460): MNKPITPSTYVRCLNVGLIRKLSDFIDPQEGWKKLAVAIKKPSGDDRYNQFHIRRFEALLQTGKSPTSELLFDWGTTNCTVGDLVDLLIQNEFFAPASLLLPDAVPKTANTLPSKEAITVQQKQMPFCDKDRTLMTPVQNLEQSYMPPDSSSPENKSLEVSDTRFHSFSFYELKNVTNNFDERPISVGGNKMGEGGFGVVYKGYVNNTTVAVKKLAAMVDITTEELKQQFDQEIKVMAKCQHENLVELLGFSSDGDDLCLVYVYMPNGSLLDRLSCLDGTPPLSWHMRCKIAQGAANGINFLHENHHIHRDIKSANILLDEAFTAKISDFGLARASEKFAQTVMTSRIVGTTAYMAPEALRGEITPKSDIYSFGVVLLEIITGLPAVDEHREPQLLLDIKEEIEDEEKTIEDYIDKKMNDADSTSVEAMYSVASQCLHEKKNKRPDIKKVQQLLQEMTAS
As to the kind of experiment: IRAK-4 biochemical assay (TR-FRET). The settings on record: IRAK-4 enzyme, 20 μM ATP; for inhibition at 0.1 µM: compound at 0.1 μM; for inhibition at 1 µM: compound at 1 μM; for IC50: dose response. Here is the method: Compounds were tested for their potential to inhibit IRAK-4 enzyme in a TR-FRET assay using recombinant IRAK-4 kinase from Millipore, USA. The assay buffer was 50 mM Tris-HCl pH 7.5, 20 mM MgCl2, 1 mM EGTA, 2 mM DTT, 3 mM MnCl2 and 0.01% Tween 20.5 ng of IRAK-4 kinase was used for the assay. After pre-incubation of enzyme with test compound for 30 minutes at room temperature, a substrate mixture containing 100 nM Biotin Histone H3 (Millipore, USA) and 20 μM ATP (Sigma, USA) was added and the reaction was incubated for 30 min. Post incubation, the reaction was stopped by the addition of stop mix containing 40 mM EDTA, 1 nM of Europium-Anti-Phospho-Histone H3 (Ser10) antibody (Perkin Elmer, USA) and 20 nM SureLight Allophycocyanin-Streptavidin (Perkin Elmer, USA). The fluorescence emission at 615 nm and 665 nm were measured at an excitation of 340 nm and the percent inhibition was estimated from the ratio of the fluorescence intensities [(F665/F615)×10000]. […] The IC50 values were estimated by fitting the dose-response data to sigmoidal dose response (variable slope), curve fitting program using Graphpad Prism software Version 6.01.
(In TR-FRET formats the signal depends on donor and acceptor labels being close together.)

As usually defined, the inhibition is the share of the control response that was lost under treatment. Consider `Cn1ncc2cc(N3CC[C@H](O)C3)c(NC(=O)c3coc(C4=CCNCC4)n3)cc21` [Example 34, (S)—N—(5-(3-hydroxypyrrolidin-1-yl)-1-methyl-1H-indazol-6-yl)-2-(1,2,3,6-tetrahydropyridin-4-yl)oxazole-4-carboxamide hydrochloride], for which the inhibition at 0.1 µM was 0% and the inhibition at 1 µM was 41%.
What is called IC50 is the concentration at which inhibition is half-maximal. For `Cc1nccc(-c2nc(C(=O)Nc3cc4c(cnn4C)cc3N3CC[C@H](O)C3)co2)n1` [Example 35, (S)—N—(5-(3-hydroxypyrrolidin-1-yl)-1-methyl-1H-indazol-6-yl)-2-(2-methylpyrimidin-4-yl)oxazole-4-carboxamide hydrochloride], the inhibition at 0.1 µM is 45%, the inhibition at 1 µM came out at 93% and the IC50 fell in the range of 0.1 to 0.25 µM.
As to `Cc1cc(-c2nc(C)c(C(=O)Nc3cc4c(cnn4C)cc3N3CC[C@H](O)C3)o2)ccn1` [Example 36, hydrochloride], the inhibition at 0.1 µM stood at 2% and the inhibition at 1 µM worked out at 1%.
The matching figures for `Cn1ncc2cc(N3CC[C@H](O)C3)c(NC(=O)c3coc(C4CCNCC4)n3)cc21` [Example 37, (S)—N—(5-(3-hydroxypyrrolidin-1-yl)-1-methyl-1H-indazol-6-yl)-2-(piperidin-4-yl)oxazole-4-carboxamide hydrochloride]: 0% and 0%.
As to `Cc1cc(-c2nc(C(=O)Nc3cc4c(cnn4C)cc3N3C4CCC3CC(O)C4)co2)ccn1` (centres unmarked) [Example 38, N—(5-(3-hydroxy-8-azabicyclo[3.2.1]octan-8-yl)-1-methyl-1H-indazol-6-yl)-2-(2-methylpyridin-4-yl)oxazole-4-carboxamide], the inhibition at 0.1 µM stood at 5%, the inhibition at 1 µM stood at 77% and the IC50 is greater than 0.25 µM.
For `Cc1cc(-c2ncc(C(=O)Nc3cc4c(cnn4C)cc3N3CC[C@H](O)C3)o2)ccn1` [Example 39, (S)—N—(5-(3-hydroxypyrrolidin-1-yl)-1-methyl-1H-indazol-6-yl)-2-(2-methylpyridin-4-yl)oxazole-5-carboxamide], in that order: 49%, 92% and 0.1 to 0.25 µM.
For `Cc1cc(-c2nc(C(=O)Nc3cc4c(cnn4C)cc3N3CCC(O)(CO)CC3)co2)ccn1` [Example 40, N-(5-(4-hydroxy-4-(hydroxymethyl)piperidin-1-yl)-1-methyl-1H-indazol-6-yl)-2-(2-methylpyridin-4-yl)oxazole-4-carboxamide], in that order: 95%, 98% and less than 0.1 µM.
`Cc1cc(-c2nc(C(=O)Nc3cc4c(cnn4C)cc3N3CC[C@H](O)C3)c(C)o2)ccn1` [Example 41, (S)—N—(5-(3-hydroxypyrrolidin-1-yl)-1-methyl-1H-indazol-6-yl)-5-methyl-2-(2-methylpyridin-4-yl)oxazole-4-carboxamide hydrochloride]: the inhibition at 0.1 µM is 0% and the inhibition at 1 µM stood at 17%.
For the compound `CCc1cc(-c2nc(C(=O)Nc3cc4c(cnn4C)cc3N3CC[C@H](O)C3)co2)ccn1` [Example 42, (S)-2-(2-ethylpyridin-4-yl)—N—(5-(3-hydroxypyrrolidin-1-yl)-1-methyl-1H-indazol-6-yl)oxazole-4-carboxamide hydrochloride], the inhibition at 0.1 µM was 83%, the inhibition at 1 µM is 97% and the IC50 is less than 0.1 µM.
Consider `Cc1nn(C)c2cc(NC(=O)c3coc(-c4ccnc(N)c4)n3)c(N3CCC(CO)CC3)cc12` [Example 43, 2-(2-aminopyridin-4-yl)—N—(5-(4-(hydroxymethyl)piperidin-1-yl)-1,3-dimethyl-1H-indazol-6-yl)oxazole-4-carboxamide hydrochloride], for which the inhibition at 0.1 µM amounted to 0% and the inhibition at 1 µM stood at 15%.
`Cc1cc(-c2nc(C(=O)Nc3cc4c(cnn4CC4CCNCC4)cc3N3CC[C@H](O)C3)co2)ccn1` [Example 44, (S)—N—(5-(3-hydroxypyrrolidin-1-yl)-1-(piperidin-4-ylmethyl)-1H-indazol-6-yl)-2-(2-methylpyridin-4-yl)oxazole-4-carboxamide hydrochloride]: the inhibition at 0.1 µM turned out to be 0% and the inhibition at 1 µM was 54%.
For `Cc1cc(-c2nc(C(=O)Nc3cc4c(cc3N3CCC(CO)CC3)c(C)nn4C)co2)ccn1` [Example 45, N—(5-(4-(hydroxymethyl)piperidin-1-yl)-1,3-dimethyl-1H-indazol-6-yl)-2-(2-methylpyridin-4-yl)oxazole-4-carboxamide hydrochloride], in that order: 2% and 12%.
Consider `Cn1ncc2cc(N3CC[C@H](O)C3)c(NC(=O)c3coc(-c4ccnc(C5CC5)c4)n3)cc21` [Example 46, (S)-2-(2-cyclopropylpyridin-4-yl)—N—(5-(3-hydroxypyrrolidin-1-yl)-1-methyl-1H-indazol-6-yl)oxazole-4-carboxamide hydrochloride], for which the inhibition at 0.1 µM worked out at 93%, the inhibition at 1 µM is 97% and the IC50 is less than 0.1 µM.
The matching figures for `Cn1cc2cc(N3CCC(O)CC3)c(NC(=O)c3cnn4cccnc34)cc2n1` [Example 47, N—(5-(4-hydroxypiperidin-1-yl)-2-methyl-2H-indazol-6-yl)pyrazolo[1,5-a]pyrimidine-3-carboxamide hydrochloride]: 34%, 89% and 0.1 to 0.25 µM.
`Cn1ncc2cc(N3CC[C@H](O)C3)c(NC(=O)c3cnn4cccnc34)cc21` [Example 48, (S)—N—(5-(3-hydroxypyrrolidin-1-yl)-1-methyl-1H-indazol-6-yl)pyrazolo[1,5-a]pyrimidine-3-carboxamide hydrochloride]: the inhibition at 0.1 µM came to 25%, the inhibition at 1 µM was 80% and the IC50 was greater than 0.25 µM.
